tested on: rabbit platlets; assay: aggregation of rabbit platelets (AC50); assay type: cell-based; conditions: Oryctolagus cuniculus, Platelet, 50% aggregation, only compounds structurally similar to PAF, read-out: AC50 (concentration of the test compound to obtain 50% aggregation of rabbit platlets)
From the text: The results obtained and the compounds tested are set forth in Table I below wherein "% I" represents percent inhibition and "AC50 " represents the concentration of the test compound to obtain 50% aggregation of rabbit platlets. The AC50 results were obtained only for those compounds which are structurally similar to PAF.

Row | Molecule | AC50 [nM]
1 | CCCCCCCCCCCCCCCCOCC(C)(O)COP(=O)([O-])OCC[N+](C)(C)C (stereo not drawn) [Example 12, 3-O-Hexadecyl-2-methylglycero-1-phosphorylcholine] | > 100000
2 | C=C(COCCCCCCCCCCCCCCCC)COP(=O)([O-])OCC[N+](C)(C)C [Example 13, 2-Hexadecyloxymethyl-2-propene-1-phosphorylcholine] | 1300
3 | CCCCCCCCCCCCCCCCOCC(COC(C)=O)COP(=O)([O-])OCC[N+](C)(C)C (stereo not drawn) [Example 14, 2-Acetoxymethyl-2-deoxy-3-O-hexadecylglycero-1-phosphocholine] | 340
4 | CCCCCCCCCCCCCCCCOCC(O)(COC(C)=O)COP(=O)([O-])OCC[N+](C)(C)C (stereo not drawn) [Example 15, 2-Acetoxymethyl-3-O-hexadecylglycero-1-phosphocholine] | 70
5 | CCCCCCCCCCCCCCCCOCC(CF)COP(=O)([O-])OCC[N+](C)(C)C (stereo not drawn) [Example 16, 2-Deoxy-2-fluoromethyl-3-0-hexadecylglycero-1-phosphocholine] | 2200
6 | CCCCCCCCCCCCCCCCOCC(CO)COP(=O)([O-])OCC[N+](C)(C)C (stereo not drawn) [Example 17, 2-Hydroxymethyl-2-deoxy-3-O-hexadecylglycero-1-phosphocholine] | 24000
7 | CCCCCCCCCCCCCCCCOCC(O)(CO)COP(=O)([O-])OCC[N+](C)(C)C (stereo not drawn) [Example 18, 2-Hydroxymethyl-3-O-hexadecylglycero-1-phosphocholine] | 38000

tested on: PAF biosynthesis; assay: PAF biosynthesis inhibition (rat spleen microsomes, [3H]acetyl CoA / lyso PAF); assay type: biochemical; conditions: 10 μM, incubation 5-8 minutes
Protocol: (1) Product PAF was estimated after reaction by liquid scintillation counting of the dried chloroform phase.
(2) [^3 H]Acetyl Co A was used in place of [^14 C],
(3) Incubation (i.e., reaction) times were generally within the range of 5-8 minutes.
(4) Concentrations used were in 1 ml of reaction mixture as follows:
Rat spleen microisomes: 50-150 μg

Row | Molecule | % I (percent inhibition), PAF biosynthesis inhibition [%]
8 | 3-Hexadecylsulfonaminopropyl-1-phosphorylcholine [Example 51] | 34
9 | 3-Octadecylaminocarbonylaminopropyl-1-phosphorylcholine [Example 52] | 74
10 | 3-Tetradecycloxycarbonylaminopropyl-2-phosphorylcholine [Example 50] | 65
11 | C=C(COCCCCCCCCCCCCCCCC)COP(=O)([O-])OCC[N+](C)(C)C [Example 13, 2-Hexadecyloxymethyl-2-propene-1-phosphorylcholine] | 38
12 | CCCCCCCCCCCCCCCCOCC(COC(C)=O)COP(=O)([O-])OCC[N+](C)(C)C (stereo not drawn) [Example 14, 2-Acetoxymethyl-2-deoxy-3-O-hexadecylglycero-1-phosphocholine] | 36
13 | CCCCCCCCCCCCCCCCOCC(O)(COC(C)=O)COP(=O)([O-])OCC[N+](C)(C)C (stereo not drawn) [Example 15, 2-Acetoxymethyl-3-O-hexadecylglycero-1-phosphocholine] | 71
14 | CCCCCCCCCCCCCCCCOCC(CF)COP(=O)([O-])OCC[N+](C)(C)C (stereo not drawn) [Example 16, 2-Deoxy-2-fluoromethyl-3-0-hexadecylglycero-1-phosphocholine] | 30
15 | CCCCCCCCCCCCCCCCOCC(CO)COP(=O)([O-])OCC[N+](C)(C)C (stereo not drawn) [Example 17, 2-Hydroxymethyl-2-deoxy-3-O-hexadecylglycero-1-phosphocholine] | 20
16 | CCCCCCCCCCCCCCCCOCC(O)(CO)COP(=O)([O-])OCC[N+](C)(C)C (stereo not drawn) [Example 18, 2-Hydroxymethyl-3-O-hexadecylglycero-1-phosphocholine] | 82
17 | Sodium 2-(2-N-hexadecanoylaminoethyl)-2'-(2 -methylcarbonylaminoethyl)phosphate [Example 46] | 90
18 | Sodium 2-(2-N-hexadecanoylaminoethyl)-2'-(2-methylsulfinylethyl)phosphate [Example 53] | 71
